In patent US20060204481A1, “Methods of promoting cell viability” (priority 2003, published 2006):

Legend:
[1] = tested on: TUNEL-positive cells in the grafted areas; test: TUNEL assay of apoptosis in graft areas 4 days post-transplantation; assay type: in vivo, rat; conditions: normal rats, p<0.01
Experimental: For the TUDCA-treated rats, a 50 μM concentration of TUDCA was added to the media when nigral tissue was trypsinized and dissociated. Two microliters of cell suspension containing TUDCA were then stereotaxically injected into the striatum of SD rats. For the control animals, the same amount of vehicle solution was added to the media. In the first series of transplantation experiment, normal rats that received neural transplants were sacrificed 4 days post-grafting and brain sections were prepared for the terminal deoxynucleotidyl transferase (TdT)-mediated dUTP-biotin nick end labeling (TUNEL) assay to determine apoptosis in the transplantation areas. […] Graft survival was assessed by counting the number of TH-positive neurons in the grafts.
A cell suspension technique was used to perform the neural transplants as previously described (A. Björklund et al., Acta. Physiol. Scand. Suppl. 522:9-18; 1983; P. Brundin et al., In: P. M. Conn, ed., Methods in Neurosciences, Lesions and Transplantation, Academic Press, San Diego, Vol 7, 1991:305-326). […] Before and after transplantation, the viabilities of the cell suspensions were assessed by the trypan blue dye exclusion method. […]

pancreatic islet cells = test: Apoptosis (TUNEL) of pancreatic islet cells in vitro; assay type: cell-based; conditions: 2 days in vitro
Experimental: As another example, TUDCA was also effective in reducing apoptosis of pancreatic islet cells after 2 days in vitro. The number of TUNEL-positive cells was approximately 29 in non-treated controls, but only 12 in cells exposed to TUDCA. The more than 50% reduction by apoptosis by TUDCA was achieved after exposure of cells to TUDCA during the isolation procedure, followed by incubation with the bile acid during culture in vitro.

[2] = tested on: TH-immunoreactive neurons in intrastriatal nigral grafts; test: Graft survival: TH-immunocytochemistry and graft volume 6 weeks after transplantation; assay type: in vivo, rat
6-OHDA lesioned rats = test: Amphetamine-induced rotation test after nigral grafting in unilateral 6-OHDA lesioned rats; assay type: in vivo, rat
Source text: A total of 24 adult female Sprague-Dawley (SD) rats, weighing about 250 grams (g) at the beginning of the experiments were used as subjects of neural grafts. Among them, 12 rats were subjected to an extensive unilateral 6-hydroxydopamine (6-OHDA) lesion of the mesostriatal dopamine (DA) system and 12 rats were normal.
The 6-OHDA lesioned rats and normal rats were randomly assigned to the TUDCA-treated (n=6 in each group) or the vehicle control (n=6 in each group) group, respectively. The rats were housed 2 per cage under a 12 hour day-night cycle with ad libitum access to food and water. They were maintained and treated in accordance with published National Institutes of Health guidelines.
For the TUDCA-treated rats, a 50 μM concentration of TUDCA was added to the media when nigral tissue was trypsinized and dissociated. Two microliters of cell suspension containing TUDCA were then stereotaxically injected into the striatum of SD rats. For the control animals, the same amount of vehicle solution was added to the media. In the first series of transplantation experiment, normal rats that received neural transplants were sacrificed 4 days post-grafting and brain sections were prepared for the terminal deoxynucleotidyl transferase (TdT)-mediated dUTP-biotin nick end labeling (TUNEL) assay to determine apoptosis in the transplantation areas. In the second series of transplantation experiments, an amphetamine-induced rotation test was used to assess the completeness of the 6-OHDA lesions prior to grafting, and repeated two and six weeks after transplantation to monitor functional effects of the neural grafts. The rats were sacrificed after the last session of the rotational behavioral test and the brain tissue was processed for tyrosine hydroxylase (TH)-immunocytochemistry. Graft survival was assessed by counting the number of TH-positive neurons in the grafts.
Two injections of 6-OHDA (hydrochloride salt, Sigma, St. Louis Mo.) were made into the right ascending mesostriatal DA pathway under equithesin anaesthesia (0.3 ml/100 g body wt. i.p.) as described previously (W.-M. Duan et al., Neuroscience 57:261-274; 1993). Briefly, a first injection of 2.5 microliter (μl) of 6-OHDA (3 microgram/microliter (μg/μl), free base, in 0.2 mg/ml ascorbate-saline) was performed at the following coordinates: 4.4 millimeter (mm) caudal to bregma; 1.2 mm lateral to midline; 7.8 mm ventral to the dural surface; with the tooth-bar set at 2.4 mm below the interaural line. A second injection of 2 μl of 6-OHDA was performed at the following coordinates; 4.0 millimeter (mm) caudal to bregma; 0.8 mm lateral to midline; 8.0 mm ventral to the dural surface; with the tooth-bar set at 3.4 mm above the interaural line. The 6-OHDA was infused at a rate of 1 μl/min, and the cannula was left in place for an additional 4 min before it was withdrawn.
Two to three weeks after the lesion surgery, the rats were given 5 milligram per kilogram (mg/kg) of d-amphetamine sulphate (Sigma, St. Louis Mo.) in saline, i.p. and their rotational behavior was monitored in automated rotometer bowls for 90 min (U. Ungerstedt et al., Brain Res. 24: 485-493; 1970). […] The rotational test was then repeated at two different time-points as mentioned in the experimental design.
A cell suspension technique was used to perform the neural transplants as previously described (A. Björklund et al., Acta. Physiol. Scand. Suppl. 522:9-18; 1983; P. Brundin et al., In: P. M. Conn, ed., Methods in Neurosciences, Lesions and Transplantation, Academic Press, San Diego, Vol 7, 1991:305-326). Briefly, VM tissue was obtained from embryos with a crown-to-rump length of 13-14 mm, corresponding to a gestational age of embryonic day 14. Dissection and preparation of the donor tissue were carried out under aseptic conditions in Hank's balanced salt solution (HBSS) (Gibco, Carlsbad, Calif.). […]

striatal tissue cultures = conditions: cited from earlier work
3-NP-lesioned rat = conditions: systemic administration; cited from earlier work
[3] = tested on: TUNEL-positive cells in VM tissue cultures; test: TUNEL assay of apoptosis in VM tissue cultures; assay type: cell-based, rat; conditions: 50 μM TUDCA, p<0.01
Experimental: In order to examine the effects of TUDCA on apoptosis and the survival of dopamine neurons in VM tissue cultures under serum-free conditions and to determine an appropriate dosage of TUDCA, primary neuronal cultures were prepared from the VM tissue of SD rat embryos and incubated with or without the addition of TUDCA (Calbiochem, La Jolla, Calif., free base, dissolved in 0.15M (where “M” is molar concentration) NaHCO3 buffer). […] Therefore, TUDCA was added to a final concentration of 50 μM to the culture medium when the culture medium was switched to serum-free conditions after two days in vitro. Neural survival and apoptosis were determined by counting TH-positive cells and TUNEL-positive cells in the cultures two or seven days in vitro. […]
For each experimental series, pooled VM tissue from 24-32 embryos was incubated in 0.1% trypsin (Sigma, St. Louis, Mo.)/0.05% DNase (Sigma, St. Louis Mo.) at 37 degrees Celsius (° C.) for 20 minutes (min), and mechanically dissociated using a 1 milliliter (ml) Gilson pipette. […] The cell number and viabilities of dissociated cells were assessed with a hemocytometer using trypan blue dye exclusion. […]
For the cell culture experiments, the number of TUNEL-positive cells was assessed at ×400 magnification with the aid of a 400-μm square, reticule grid. […] Average number of TUNEL-positive cells was calculated and represented a value for single animals.

[4] = tested on: TH-positive neurons and total cells in ventral mesencephalic (VM) tissue cultures; test: Dopamine neuron survival in serum-free ventral mesencephalic tissue cultures (TH-positive and total cell counts); assay type: cell-based, rat
Experimental: In order to examine the effects of TUDCA on apoptosis and the survival of dopamine neurons in VM tissue cultures under serum-free conditions and to determine an appropriate dosage of TUDCA, primary neuronal cultures were prepared from the VM tissue of SD rat embryos and incubated with or without the addition of TUDCA (Calbiochem, La Jolla, Calif., free base, dissolved in 0.15M (where “M” is molar concentration) NaHCO3 buffer). […] Therefore, TUDCA was added to a final concentration of 50 μM to the culture medium when the culture medium was switched to serum-free conditions after two days in vitro. Neural survival and apoptosis were determined by counting TH-positive cells and TUNEL-positive cells in the cultures two or seven days in vitro. A total of three separate series of cell culture experiments were performed.
For each experimental series, pooled VM tissue from 24-32 embryos was incubated in 0.1% trypsin (Sigma, St. Louis, Mo.)/0.05% DNase (Sigma, St. Louis Mo.) at 37 degrees Celsius (° C.) for 20 minutes (min), and mechanically dissociated using a 1 milliliter (ml) Gilson pipette. Following dissociation, the cells were centrifuged at 600 rotation per minute (rpm) for 5 min and the pellet was resuspended in Dulbecco's Modified Eagle's Medium (DMEM) (Gibco, Carlsbad, Calif.). The cell number and viabilities of dissociated cells were assessed with a hemocytometer using trypan blue dye exclusion. The number of 100,000 cells/cm^2 (178,000 cells per well) were plated on to four-well chamber slides (Nunc, Rochester, N.Y.) precoated with […] poly-d-lysine (Sigma, St. Louis Mo.). The viabilities of dissociated cells were over 95%. Cell cultures were incubated for 2 days in DMEM supplemented with 10% fetal calf serum at 37° C. in a 95% air/5% CO^2 humidified atmosphere. After 2 days in vitro, the culture medium was switched to serum-free N2 medium, consisting of DMEM/Ham's F 12(1:1) mixture (Gibco, Carlsbad, Calif.).
At this time point, some cultures were supplemented with TUDCA. […]

C[C@H](CCC(=O)NCCS(=O)(=O)O)[C@H]1CC[C@H]2[C@@H]3[C@@H](O)C[C@@H]4C[C@H](O)CC[C@]4(C)[C@H]3CC[C@]12C [TUDCA, tauroursodeoxycholic acid]
number of apoptotic (TUNEL-positive) cells in the grafted areas compared to control group [1]: significantly smaller | number of TUNEL-positive cells (pancreatic islet cells; TUDCA during isolation and culture, non-treated controls approximately 29): 12 | reduction of apoptosis (pancreatic islet cells; versus non-treated controls): more than 50% | areas of the host striatum reinnervated by the grafts compared to control group [2]: larger | graft volume compared to control group ([2]; p<0.05): significantly larger | mean net rotation values compared to pregrafting values (6-OHDA lesioned rats; 2 weeks after grafting, p<0.01, not in control group): significantly reduced | rats exhibiting at least 50% reduction in net motor asymmetry compared to pre-transplantation values (6-OHDA lesioned rats; 2 weeks after transplantation, cell suspension pre-treated with 50 μM TUDCA, none of the control animals): 4 of 6 | net asymmetry values compared to control group (6-OHDA lesioned rats; 2 weeks after transplantation, p<0.05): lower net asymmetry values than the control group | motor asymmetry scores compared to pregrafting (6-OHDA lesioned rats; 6 weeks after surgery, p<0.05, both groups): significantly reduced motor asymmetry scores | difference in motor asymmetry scores between TUDCA-treated and control groups (6-OHDA lesioned rats; 6 weeks after surgery, p>0.05): not longer any difference | reduction in motor asymmetry scores (6-OHDA lesioned rats; 6 weeks following transplantation, all rats of both control and TUDCA-treated groups): > 50% | 3-nitropropionic acid (3-NP)-mediated neuronal cell death (striatal tissue cultures): significantly reduces | neurological deficits (3-NP-lesioned rat): ameliorate neurological deficits | striatal degeneration (3-NP-lesioned rat): reduce striatal degeneration | number of TUNEL-positive cells, 7 DIV control versus 7 DIV TUDCA-treated cultures [3]: significantly higher in 7 DIV control cultures | number of TH-positive cells, TUDCA-treated cultures compared with 2DIV cultures ([4]; 50 μM TUDCA added at switch to serum-free medium after 2 days in vitro, counted at 7 DIV, p>0.05): No difference | cell loss of TH-positive neurons and total cells ([4]; 7DIV TUDCA-treated cultures, serum-free, 7 DIV control had only 30% of 2 DIV TH-positive neurons): not observed | dose dependence of neural protective effect ([4]; VM tissue cultures, serum-free): dose-dependent manner
